Measured values as given in patent US20190292215A1, “COMPOUNDS, COMPOSITIONS, AND METHODS FOR THE TREATMENT OF DISEASE” (Sperovie Biosciences, Inc., priority 2016, published 2019).

System: IFN-β
Assay: Semi-quantitative RT-PCR of IFN-β gene expression in THP1-Dual / KO STING cells
Assay type: cell-based
Conditions: THP1-WT, treated 5 or 22 hrs; Cmd 1 alone (no lipo)
Method: RNA samples were prepared using Qiagen RNeasy kit and the expression of IFNβ, IRF7 and housekeeper gene β-actin was determined using semi-quantitative reverse transcription (RT)-PCR (started with equal amounts of RNA). PCR products were subjected to 1% agarose gel electrophoresis.
Lipofectamine 2000 also activates IFN-β gene, but cells were treated with Cmd 1 alone (no lipo). DMSO is the negative control.

For `Nc1nc2c(ncn2[C@@H]2O[C@@H]3COP(=O)(O)O[C@H]4[C@@H](O)[C@H](n5cnc6c(N)ncnc65)O[C@@H]4COP(=O)(O)O[C@@H]2[C@@H]3O)c(=O)[nH]1` [2′3′-cGAMP], the “Time to induce IFN-β gene expression” value was at most 5 h.
